Patent US7625889B2, “Substituted bis aryl and heteroaryl compounds as selective 5HT2A antagonists” (Aventis Pharmaceuticals Inc., priority 2005, dated 2009)
Structures can show the parent of a compound that is named as a salt.

Target: T1, human 5HT2A receptor (Homo sapiens, UniProt P28223)
T1 construct: expressed in transfected cells
Test: Receptor Binding Assay, 5HT2A ([3H]N-methyl spiperone)
Conditions: BHK cells expressing human 5HT2A receptor, 2.5 nM [3H]N-methyl spiperone, 37° C.
Description: Cell Culture: BHK cells stably expressing the human 5HT2A receptor were maintained in Dulbecco's Modified Eagle's Medium supplemented with […] Geneticin, 1% Sodium Pyruvate, 1% Pen-Strep and 10% Fetal Calf Serum, and treated with 5 mM sodium butyrate for 24 h to increase receptor expression before harvesting. Cells were harvested by mechanical scraping, washed with Phosphate Buffered Saline, and stored at −80° C. in 10% DMSO in 1 mg/mil aliquots until used. Protein determination was made according to Lowry.
Receptor Binding Assays: The 5HT2A and D2L assays were conducted at 37° C. in a Tris buffer containing salts (50 mM Tris Buffer, pH 7.7; 120 mM NaCl; 5 mM KCl; 2 mM CaCl2; 1 mM MgCl2). Cell membranes (previously prepared and frozen) were rapidly thawed. Membranes were diluted to an appropriate concentration (to produce 100 μg protein/assay point for 5HT2A, and 58 μg protein/assay point for D2L) in Tris buffer and homogenized. Assays were conducted on 96-well plates, using 2.5 and 1 nM [^3H]N-methyl spiperone as radioligand for 5HT2A and D2L assays, respectively. Plates were incubated at 37° C. in a shaking water bath for 30 and 60 min, for 5HT2A and D2L, respectively. Nonspecific binding was defined using 100 μM methylsergide and eticlopride, for 5HT2A and D2L, respectively.
Assays were terminated by rapid filtration through Millipore MAFB or MAFC (5HT2C) filter plates (presoaked in 50 mM Tris HCl, pH 7.7, with 0.1% Brij) using a Millipore Cell Harvester. The filter plates were then washed with ice-cold 50 mM Tris buffer, pH 7.7, and allowed to dry overnight. 50 μl of Microscint scintillation cocktail were added and the plates were counted in a Packard Topcount scintillation counter.
IC50 and Ki calculations were performed using nonlinear regression one-site competition analysis (GraphPad, Prism), with top and bottom limits held constant at 0% and 100% inhibition, respectively. The percent inhibition at each drug concentration was the average of duplicate determinations. Except where indicated, each determination was performed 2 to 5 times.

T1 sequence (P28223 whole entry): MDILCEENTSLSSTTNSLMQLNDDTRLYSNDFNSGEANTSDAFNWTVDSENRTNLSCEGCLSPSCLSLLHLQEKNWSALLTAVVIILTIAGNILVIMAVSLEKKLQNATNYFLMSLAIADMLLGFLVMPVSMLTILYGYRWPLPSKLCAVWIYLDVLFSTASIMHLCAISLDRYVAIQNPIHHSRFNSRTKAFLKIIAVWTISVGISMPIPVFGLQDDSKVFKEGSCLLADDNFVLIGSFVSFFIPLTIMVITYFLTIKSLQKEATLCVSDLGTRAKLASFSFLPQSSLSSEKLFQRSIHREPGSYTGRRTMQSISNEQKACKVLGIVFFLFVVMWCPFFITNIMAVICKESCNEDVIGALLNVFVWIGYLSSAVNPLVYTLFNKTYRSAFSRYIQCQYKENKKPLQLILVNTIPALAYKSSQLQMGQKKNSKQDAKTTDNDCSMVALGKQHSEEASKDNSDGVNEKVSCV

| SMILES | Ki [nM] |
| --- | --- |
| CN(C)CCN(Cc1ccccc1)Cc1cccc(-c2cnc3c(c2)OCC(=O)N3)c1 [Example 7] | 210 |
| CN1CCN(Cc2cccc(-c3ccc4[nH]c(=O)oc4c3)c2)CC1 [Example 8] | 35.4 |
| CN1CCN(Cc2cccc(-c3ccc4[nH]nnc4c3)c2)CC1 [Example 9] | 227 |
| CN1CCN(Cc2cc(-c3ccc4[nH]ccc4c3)ccc2F)C(c2cccnc2)C1 (centres unmarked) [Example 10] | 13.8 |
| CN1CCN(Cc2cc(-c3ccc4[nH]ccc4c3)ccc2F)C(c2ccccn2)C1 (centres unmarked) [Example 13] | 3.3 |
| CN1CCN(Cc2cc(-c3ccc4[nH]ccc4c3)ccc2F)C(c2ccc(C(F)(F)F)cc2)C1 (centres unmarked) [Example 15] | 13.8 |
| CN(C)CCCN(Cc1ccccc1)Cc1cccc(-c2ccc3[nH]nnc3c2)c1 [Example 17, N-[3-(1H-Benzotriazol-5-yl)-benzyl]-N-benzyl-N′,N′-dimethyl-propane-1,3-diamine] | 7.2 |
| CN(C)CCCN(Cc1ccccc1)Cc1cccc(-c2ccc3[nH]cnc3c2)c1 [Example 19] | 76.5 |
| CN1CCC(N(Cc2cccc(-c3ccc4[nH]ccc4c3)c2)C(=O)c2cccs2)CC1 [Example 28] | 0.7 |
| CN1CCC(N(Cc2cc(-c3ccc4[nH]ccc4c3)ccc2F)C(=O)c2cccs2)CC1 [Example 29] | 0.7 |
| CN(C)CCN(Cc1cccc(-c2ccc3[nH]c(=O)sc3c2)c1)C(=O)c1ccccc1 [Example 32] | 1.1 |
| CN(C)CCN(Cc1cc(-c2ccc3[nH]ccc3c2)ccc1F)C(=O)c1cccs1 [Example 33] | 1.19 |
| CN(C)CCN(Cc1cc(-c2ccc3[nH]cc(C#N)c3c2)ccc1F)C(=O)c1ccc(F)cc1 [Example 35] | 2.8 |
| CN(C)CCCN(Cc1cccc(-c2ccc3[nH]c(=O)sc3c2)c1)C(=O)c1ccccc1 [Example 36] | 4.1 |
| CN(C)CCN(Cc1cccc(-c2ccc3[nH]c(=O)sc3c2)c1)C(=O)c1ccc(Cl)cc1 [Example 37] | 4.1 |
| O=C(c1ccc(F)cc1)N(Cc1cc(-c2ccc3[nH]ccc3c2)ccc1F)CC12CCN(CC1)CC2 [Example 38] | 14.4 |
| O=C(c1ccc(F)cc1)N(CCN1CCCC1)Cc1cncc(-c2ccc3[nH]ccc3c2)c1 [Example 39] | 1.1 |
| CN1CCC(N(Cc2ccc(F)c(-c3ccc4[nH]ccc4c3)c2)C(=O)c2ccc(F)cc2)CC1 [Example 40] | 0.58 |
| O=c1[nH]c2ccc(-c3ccc(F)c(CN4CCNCC4c4cccs4)c3)cc2o1 (centres unmarked) [Example 43] | 0.6 |
| Fc1ccc([C@H]2CNCCN2Cc2cc(-c3ccc4[nH]nnc4c3)ccc2F)cc1 [Example 45] | 0.99 |
| N#Cc1c[nH]c2ccc(-c3ccc(F)c(CN4CCNC[C@@H]4c4ccc(F)cc4)c3)cc12 [Example 51] | 9.2 |

| SMILES | Ki [nM] |
| --- | --- |
| CN1CCN(Cc2cc(-c3ccc4[nH]ccc4n3)ccc2F)[C@@H](c2ccc(F)cc2)C1 [Example 52] | 3.1 |
| CCN1CCC[C@H]1CN(Cc1cc(-c2ccc3[nH]nnc3c2)ccc1F)C(=O)c1ccc(F)cc1 [Example 53, N-[5-(1H-Benzotriazol-5-yl)-2-fluoro-benzyl]-N-(1-ethyl-pyrrolidin-2S-ylmethyl)-4-fluoro-benzamide] | 2.13 |
| O=C(c1ccc(F)cc1)N(CCN1CCCC1)Cc1cccc(-c2ccc3[nH]nnc3c2)c1 [Example 54] | 0.9 |
| O=C(c1ccc(F)cc1)N(CCN1CCCC1)Cc1cc(-c2ccc3[nH]ncc3c2)ccc1F [Example 55] | 0.31 |
| O=C(c1cccs1)N(CCN1CCCC1)Cc1cc(-c2ccc3[nH]nnc3c2)ccc1F [Example 56] | 6.51 |
| O=C(c1ccc(F)cc1F)N(CCN1CCCC1)Cc1cc(-c2ccc3[nH]nnc3c2)ccc1F [Example 57] | 0.71 |
| CN1C2CCC1CC(N(Cc1cc(-c3ccc4[nH]ncc4c3)ccc1F)C(=O)c1ccc(F)cc1)C2 (centres unmarked) [Example 58] | 1.23 |
| CN(C)CCN(Cc1cc(-c2ccc3c(c2)CCN3)ccc1F)C(=O)c1ccc(F)cc1 [Example 60] | 1.13 |
| CN1CCCC(N(Cc2cc(-c3ccc4[nH]ncc4c3)ccc2F)C(=O)c2ccc(F)cc2)C1 (centres unmarked) [Example 61] | 0.7 |
| CN1CC[C@@H](N(Cc2cc(-c3ccc4[nH]ncc4c3)ccc2F)C(=O)c2ccc(F)cc2)C1 [Example 62] | 0.75 |
| CN1CC[C@H](N(Cc2cc(-c3ccc4[nH]ncc4c3)ccc2F)C(=O)c2ccc(F)cc2)C1 [Example 63] | 0.58 |
| CN1CCCC(N(Cc2cc(-c3ccc4[nH]ncc4c3)ccc2F)C(=O)c2ccc(F)cc2)C1 (centres unmarked) [Example 64] | 0.6 |
| CN1[C@@H]2CC[C@H]1C[C@H](N(Cc1cc(-c3ccc4[nH]ncc4c3)ccc1F)C(=O)c1ccc(F)cc1)C2 [Example 65] | 0.9 |
| O=C(c1ccc(F)cc1)N(Cc1cc(-c2ccc3[nH]nnc3c2)ccc1F)C1CCNCC1 [Example 66] | 0.67 |
| CC(C)N1CCC(N(Cc2cc(-c3ccc4[nH]nnc4c3)ccc2F)C(=O)c2ccc(F)cc2)CC1 [Example 67, N-[5-(1H-Benzotriazol-5-yl)-2-fluoro-benzyl]-4-fluoro-N-(1-isopropyl-piperidin-4-yl)-benzamide] | 2.16 |
| O=C(c1ccc(F)cc1)N(Cc1cc(-c2ccc3[nH]nnc3c2)ccc1F)C1CCN(C2CC2)CC1 [Example 68, N-[5-(1H-Benzotriazol-5-yl)-2-fluoro-benzyl]-N-(1-cyclopropyl-piperidin-4-yl)-4-fluoro-benzamide] | 3.14 |
| CN1CCC(N(Cc2cc(-c3ccc4[nH]nnc4c3)ccc2F)C(=O)c2ccc(F)cc2)CC1 [Example 69, N-[5-(1H-Benzotriazol-5-yl)-2-fluoro-benzyl]-N-(1-methyl-piperidin-4-yl)-4-fluoro-benzamide] | 1.35 |
| CN1CCC(N(Cc2ccc(F)cc2)Cc2cc(-c3ccc4[nH]ccc4c3)ccc2F)CC1 [Example 70, (4-Fluoro-benzyl)-[2-fluoro-5-(1H-indol-5-yl)-benzyl]-(1-methyl-piperidin-4-yl)-amine] | 0.72 |
| O=C(c1ccc(F)cc1)N(CCN1CCCC1)Cc1ccc(-c2ccc3[nH]ccc3c2)s1 [Example 75] | 2.14 |
| CN1CCC(N(Cc2cc(-c3ccc4[nH]ccc4c3)co2)C(=O)c2ccc(F)cc2)CC1 [Example 76] | 4.74 |

Other lines, results leading:

| Ki [nM] | SMILES |
| --- | --- |
| 10.8 | CN(C)CCN(Cc1ccccc1)Cc1cccc(-c2ccc3[nH]ccc3c2)c1 [Example 1, N-Benzyl-N-[3-(1H-indol-5-yl)-benzyl]-N′,N′-dimethyl-ethane-1,2-diamine] |
| 2.4 | CN(C)CCN(Cc1ccccc1)Cc1cccc(-c2ccc3[nH]c(=O)sc3c2)c1 [Example 2] |
| 33.5 | CN(C)CCN(Cc1ccccc1)Cc1cccc(-c2ccc3[nH]c(=O)n(C)c(=O)c3c2)c1 [Example 4] |
| 218 | CN(C)CCN(Cc1ccccc1)Cc1cccc(-c2ccc3[nH]c(=O)[nH]c3c2)c1 [Example 5] |
| 2.7 | CN(C)CCN(Cc1ccccc1)Cc1cccc(-c2ccc3[nH]ncc3c2)c1 [Example 6] |
| 16.2 | CN1CCN(Cc2cc(-c3ccc4[nH]c(=O)oc4c3)co2)[C@H](c2ccc(F)cc2)C1 [Example 11] |
| 1.4 | CN1CCN(Cc2ccc(-c3ccc4[nH]c(=O)oc4c3)o2)[C@@H](c2ccc(F)cc2)C1 [Example 14] |
| 74.8 | CN(C)CCN(Cc1ccccc1)Cc1cccc(-c2ccc3[nH]cnc3c2)c1 [Example 18] |
| 0.56 | CN(C)CCN(Cc1cccc(-c2ccc3[nH]c(=O)oc3c2)c1)C(=O)c1ccccc1 [Example 24] |
| 0.6 | CCN1CCCC1CN(Cc1cc(-c2ccc3[nH]c(=O)oc3c2)ccc1F)C(=O)c1ccc(F)cc1 (centres unmarked) [Example 25] |
| 0.77 | CN(C)CCN(Cc1cccc(-c2ccc3[nH]c(=O)oc3c2)c1)C(=O)c1ccc(Cl)cc1 [Example 30] |
| 0.92 | CCN1CCC[C@@H]1CN(Cc1cc(-c2ccc3[nH]c(=O)oc3c2)ccc1F)C(=O)c1ccc(F)cc1 [Example 31] |
| 0.6 | CN(C)CCN(Cc1ccc(F)cc1)Cc1cncc(-c2ccc3[nH]c(=O)oc3c2)c1 [Example 48] |
| 0.4 | CN(C)CCN(Cc1ccc(F)cc1)Cc1cncc(-c2ccc3[nH]ncc3c2)c1 [Example 49] |
| 2.5 | CN(C)CCN(Cc1ccc(F)cc1)Cc1cc(-c2ccc3[nH]c(=O)oc3c2)co1 [Example 50] |
| 0.89 | CN1CCC(N(Cc2cc(-c3ccc4[nH]c(=O)oc4c3)ccc2F)C(=O)c2ccc(F)cc2)CC1 [Example 59] |
| 2.37 | CN(C)CCN(Cc1ccc(F)cc1)Cc1cc(-c2ccc3[nH]ccc3c2)ccc1F [Example 72] |
| 1.05 | CN(C)CCN(Cc1cncc(-c2ccc3[nH]ccc3c2)c1)C(=O)c1ccc(F)cc1 [Example 74, N-(2-Dimethylamino-ethyl)-4-fluoro-N-[5-(1H-indol-5-yl)-pyridin-3-ylmethyl]-benzamide trifluoroacetate] |
